How the values were obtained:
[1] = test system: AICD; assay: AICD by Western blot in SY5Y-APP695WT cells; assay type: cell-based, human; details: AICD increase compared to chloroquine ([AICD]compound/[AICD]CQ) at 3 μM; mean of at least three experiments
Excerpt: Antibodies. Primary antibodies used in this study for western-blot analysis included a homemade rabbit antiserum against the last 17 amino acids of human APP protein sequence, named APP-Cter-C17 (1/5000 in TBS-M). Anti-β-actin (1/10 000 in TBS-M) was obtained from Sigma. Anti-LC3B (1/2000 in TBS-BSA) and anti-p62/SQSTM1 (1/2000 in TBS-M) antibodies were purchased from Cell Signaling Technology. Secondary antibodies (peroxidase-labeled goat anti-rabbit IgG, 1/5000 or peroxidase-labeled horse anti-mouse IgG, 1/50000 in TBS-T) were obtained from Vector Laboratories.
Cell culture and treatment. The human neuroblastoma cell line SY5Y-APP^695WT was maintained in Dulbecco's modified Eagle medium (DMEM, high glucose, pyruvate—GIBCO by Life Technologies) supplemented with 10% foetal bovine serum, 2 mM L-glutamine, 1 mM non-essential amino acids and penicillin/streptomycin (GIBCO by Life Technologies) at 37° C. in a 5% CO2 humidified incubator. SY5Y-APP^695WT cells were maintained in 75 cm^2 culture flasks (Falcon) with supplemented DMEM medium until they reached 80% of confluence 24 h before treatment.
For drug treatment, cells were plated at a rate of 5·10^5 cells per well into 12-well plates (Falcon) and cultured with 1 mL supplemented DMEM cell medium for 24 h before drug exposure. The following day, cell medium was replaced with fresh medium containing drugs diluted at the indicated concentrations. Cells were treated for 24 h. At the end of treatments, the cell medium was collected and kept at −80° C. until use for dosage. Then, cells were rinsed once with PBS and extracted in 100 μL of Laemmli buffer (10 mM Tris, 20% glycerol and 2% Sodium dodecyl sulfate) using a cell-scraper. The cell lysate was further sonicated (30 pulses of 0.5 s, 60 Hz) for 5 min. Total protein concentration was determined using the Pierce BCA Protein Assay Kit (Thermo scientific) according to the manufacturer's instructions. Samples were stored at −80° C. until analysis.
Western Blot Analysis. Cell protein lysates were prepared for western-blot analysis by diluting the sample with 1 volume of NuPAGE® lithium dodecyl sulfate (LDS) 2× sample buffer supplemented with 20% NuPAGE® sample reducing agents (Invitrogen). Samples were heat 10 min at 100° C. 10 μg of total proteins per well were loaded onto a precast 4-12% Criterion XT Bis-Tris polyacrylamide gel (Bio-Rad) and electrophoresis was achieved after applying a tension of 150 V during 90 min using a Criterion electrophoresis Cell with the NuPAGE® MOPS SDS running buffer (1×). Proteins were transferred to a nitrocellulose membrane of […] pore size (G&E Healthcare) using the Criterion blotting system and applying a tension of 100 V for 45 min. To resolve proteins of low molecular weights such as carboxy-terminal fragments of APP, 12% Criterion XT Bis-Tris polyacrylamide gels (Bio-Rad) were used and electrophoresis was performed during 70 min at 150 V in a NuPAGE® MES SDS running buffer (1×). Proteins were transferred to a nitrocellulose membrane of 0.2 μm pore size (G&E Healthcare) at 100 V for 40 min. Molecular weights calibration was achieved using molecular weight markers (Novex and Magic Marks, Life Technologies). Protein transfer and quality were determined by a reversible Ponceau Red coloration (0.2% Xylidine Ponceau Red and 3% Trichloroacetic acid). Membranes were then blocked in 25 mM Tris-HCl pH 8.0, 150 mM NaCl, 0.1% Tween-20 (v/v) (TBS-T) and 5% (w/v) of skimmed milk (TBS-M) or 5% (w/v) of bovine serum albumin (TBS-BSA) depending on the antibody during 1 h. Membrane was rinsed three-times 10 min in TBS-T before incubation with the primary antibody overnight at 4° C. Membrane was rinsed 3 times 10 min with TBS-T and then incubated with the secondary antibody for 45 min at room temperature (RT). […] Quantifications of protein expression levels were performed with ImageJ Software (NIH). […]

[2] = test system: Tau; assay: Tau phosphorylation by Western-blotting in hippocampus and cortex of ThyTau22 mice; assay type: in vivo; details: one month treatment; for phosphorylation of Tau (overall): hippocampus and cortex
Experimental: Thy-Tau22 transgenic colonies (C57Bl/6J genetic background) were obtained by crossing heterozygous males C57Bl/6J with WT females. All animals were housed in a pathogen-free facility at 5 to 6 animals per cage (Techniplast Cages 1284L), with ad libitum access to food and water in a 12/12-hour light-dark cycle and maintained under a constant temperature of 22° C. For treatment, animals were randomly distributed and compound 30 or 31 was provided in the drinking water at a final concentration of 1 mg/kg, ie […] for drinking solutions taking into account an average weight of 25 g/mouse drinking 4 mL/day. […] Food consumption and bodyweight were also assessed. In WT animals, a pilot study of drug treatment was performed for one month to establish the innocuousness of compound 30 and 31 treatments. Thy-Tau22 females were treated for 1 months, starting at 6 months of age.
Hyperphosphorylation and phosphorylation levels of Tau. Tau expression, phosphorylation and hyperphosphorylation in the hippocampus and in the cortex were investigated by Western-blotting (FIGS. 5 and 6). The mice were euthanized by beheading and their brain was dissected and was put for few seconds in an isopropanol solution for post-mortem conservation. The samples were sonicated with a Tris-Sucrose Buffer during 30s and were prepared for Western-blot analysis by adding 1 volume of NuPage NuPAGER©LDS 2× sample buffer supplemented with 20% NuPAGER© sample reducing agents (Invitrogen). Samples were heated 10 min at 70° C. 8 μg of proteins per well were loaded onto precast 12% Criterion XT Bis-Tris polyacrylamide 26 wells gels (Bio-Rad) and electrophoresis was achieved by applying a tension of 200V during 60 min using a Criterion electrophoresis Cell with the NuPAGER©MOPS SDS running buffer (1×). Proteins were transferred to a nitrocellulose membrane of […] pore size (G&E Healthcare) using the Criterion blotting system by applying a tension of 100 V for 40 min. Molecular weights calibration was achieved using molecular weight markers (Novex and Magic Marks, Life Technologies). Protein transfer and quality were determined by a reversible Ponceau Red coloration (0.2% Xylidine Ponceau Red and 3% Trichloroacetic acid). Membranes were then blocked in 25 mM Tris-HCl pH 8.0, 150 mM NaCl, 0.1% Tween-20 (v/v) (TBS-T) and 5% (w/v) of skimmed milk (TBS-M) or 5% (w/v) of bovine serum albumin (TBS-BSA) depending on the antibody during 1 hour. […] Quantifications of protein expression levels were performed with ImageQuantTL Software. The results obtained with the quantification of the treated samples were divided by the results obtained with the quantification of the housekeeping gene (GAPDH) in order to check if the amount of proteins was homogeneous in each well. […]

CN(C)Cc1ccccc1-c1ccc(NCCCN2CCCCC2)c(OCCN2CCCCC2)c1 [Compound 30, 4-(2-[(Dimethylamino)methyl]phenyl)-2-[2-(piperidin-1-yl)ethoxy]-N-[3-(piperidin-1-yl)propyl]aniline]
AICD vs CQ (3 μM) [1]: 3.6
phosphorylation of Tau (overall) [2]: showed less effect on Tau phosphorylation

CN(C)Cc1ccccc1-c1ccc(NCCCN2CCCCC2)c(OCCC2CCCCC2)c1 [Compound 31, 3-(2-cyclohexylethoxy)-2′-((dimethylamino)methyl)-N-(3-(piperidin-1-yl)propyl)-[1,1′-biphenyl]-4-amine]
AICD vs CQ (3 μM) [1]: 0.1
Tau phosphorylation sites in the cortex ([2]; Western-blot): decreased significantly the p422, AT100, p396 and p262 phosphorylation sites
Tau phosphorylation sites in the hippocampus ([2]; Western-blot): p422 and p262 phosphorylation sites were also significantly reduced
phosphorylation of Tau (overall) [2]: decreased the phosphorylation of Tau in the hippocampus and in the cortex

— patent US20210230131A1, “POLYAMINO BIARYL COMPOUNDS AND THEIR USE” (INSERM (INSTITUT NATIONAL DE LA SANTÉ ET DE LA RECHERCHE …, priority 2018, published 2021)
